From ChEMBL document CHEMBL3611970, “Synthesis and evaluation of isatin-β-thiosemicarbazones as novel agents against antibiotic-resistant Gram-positive bacterial species” (2015)
≈ marks a conversion by molar mass, not a printed value.

How the values were obtained:
Type in all cases: functional
Staphylococcus aureus [1] = assay: Antimicrobial activity against methicillin-resistant Staphylococcus aureus 6-42 clinical isolate after 16 hrs by broth microdilution method; conditions: 6-42, 16 h
Staphylococcus aureus [2] = assay: Antimicrobial activity against methicillin-resistant Staphylococcus aureus 309-7 clinical isolate after 16 hrs by broth microdilution method; conditions: 309-7, 16 h
Staphylococcus aureus [3] = assay: Antimicrobial activity against methicillin-resistant Staphylococcus aureus 309-6 clinical isolate after 16 hrs by broth microdilution method; conditions: 309-6, 16 h
Staphylococcus aureus [4] = assay: Antimicrobial activity against methicillin-resistant Staphylococcus aureus 6281 clinical isolate after 16 hrs by broth microdilution method; conditions: Staphylococcus aureus, 6281, 16 h
Enterococcus faecalis [5] = assay: Antimicrobial activity against vancomycin-susceptible Enterococcus faecalis after 16 hrs by broth microdilution method
Pseudomonas aeruginosa = assay: Antimicrobial activity against Pseudomonas aeruginosa PAO1 after 16 hrs by broth microdilution method; conditions: PAO1, 16 h
Staphylococcus aureus [6] = assay: Antimicrobial activity against methicillin-resistant Staphylococcus aureus 309-3 clinical isolate after 16 hrs by broth microdilution method; conditions: 309-3, 16 h
Staphylococcus aureus [7] = assay: Antimicrobial activity against Staphylococcus aureus ATCC 6538 after 16 hrs by broth microdilution method; conditions: ATCC 6538, 16 h
Staphylococcus aureus [8] = assay: Antimicrobial activity against methicillin-resistant Staphylococcus aureus 309-4 clinical isolate after 16 hrs by broth microdilution method; conditions: 309-4, 16 h
Staphylococcus aureus [9] = assay: Antimicrobial activity against methicillin-resistant Staphylococcus aureus 8-21 clinical isolate after 16 hrs by broth microdilution method; conditions: 8-21, 16 h
Bacillus spizizenii = assay: Antimicrobial activity against Bacillus subtilis ATCC 6633 after 16 hrs by broth microdilution method; conditions: ATCC 6633, 16 h
Staphylococcus aureus [10] = assay: Antimicrobial activity against methicillin-resistant Staphylococcus aureus 309-8 clinical isolate after 16 hrs by broth microdilution method; conditions: 309-8, 16 h
Staphylococcus aureus [11] = assay: Antimicrobial activity against methicillin-resistant Staphylococcus aureus 309-1 clinical isolate after 16 hrs by broth microdilution method; conditions: 309-1, 16 h
Enterococcus faecalis [12] = assay: Antimicrobial activity against Enterococcus faecalis VRE-309 after 16 hrs by broth microdilution method; conditions: VRE-309, 16 h
Klebsiella pneumoniae = assay: Antimicrobial activity against Klebsiella pneumoniae KP-249 clinical isolate after 16 hrs by broth microdilution method; conditions: KP-249, 16 h
Staphylococcus aureus [13] = assay: Antimicrobial activity against methicillin-resistant Staphylococcus aureus Chaoyang clinical isolate after 16 hrs by broth microdilution method
Staphylococcus aureus [14] = assay: Antimicrobial activity against methicillin-resistant Staphylococcus aureus 8-24 clinical isolate after 16 hrs by broth microdilution method; conditions: 8-24, 16 h

In the case of O=C1Nc2c(Br)cccc2/C1=N/NC(=S)Nc1ccc(Cl)cc1, the MIC (Staphylococcus aureus [1]) is reported as 0.78 µg/mL (≈ 1.9 µM), the MIC (Staphylococcus aureus [2]) is reported as 0.39 µg/mL (≈ 0.952 µM) and the MIC (Staphylococcus aureus [3]) is reported as 1.56 µg/mL (≈ 3.81 µM). The MIC (Staphylococcus aureus [4]) was 1.56 µg/mL (≈ 3.81 µM), the MIC (Enterococcus faecalis [5]) was 3.12 µg/mL (≈ 7.62 µM) and the MIC (Pseudomonas aeruginosa) was > 100 µg/mL. For the same compound, the MIC (Staphylococcus aureus [6]) was 0.78 µg/mL (≈ 1.9 µM), the MIC (Staphylococcus aureus [7]) was 1.56 µg/mL (≈ 3.81 µM) and the MIC (Staphylococcus aureus [8]) was 0.78 µg/mL (≈ 1.9 µM). The MIC (Staphylococcus aureus [9]) was 0.78 µg/mL (≈ 1.9 µM), the MIC (Bacillus spizizenii) was ≤ 0.78 µg/mL and the MIC (Staphylococcus aureus [10]) was 0.78 µg/mL (≈ 1.9 µM). The MIC (Staphylococcus aureus [11]) was 0.78 µg/mL (≈ 1.9 µM), the MIC (Enterococcus faecalis [12]) was 1.56 µg/mL (≈ 3.81 µM) and the MIC (Klebsiella pneumoniae) was > 100 µg/mL. It also gave an MIC (Staphylococcus aureus [13]) of 0.39 µg/mL (≈ 0.952 µM) and an MIC (Staphylococcus aureus [14]) of 1.56 µg/mL (≈ 3.81 µM).
With Cc1ccc(NC(=S)N/N=C2\C(=O)Nc3c(C)cccc32)cc1 the MIC (Staphylococcus aureus [1]) was 1.56 µg/mL (≈ 4.81 µM), the MIC (Staphylococcus aureus [2]) was 1.56 µg/mL (≈ 4.81 µM) and the MIC (Staphylococcus aureus [3]) was 3.12 µg/mL (≈ 9.62 µM). For the same compound, the MIC (Staphylococcus aureus [4]) was 3.12 µg/mL (≈ 9.62 µM), the MIC (Enterococcus faecalis [5]) was 6.25 µg/mL (≈ 19.3 µM) and the MIC (Pseudomonas aeruginosa) was > 100 µg/mL. The MIC (Staphylococcus aureus [6]) was 3.12 µg/mL (≈ 9.62 µM), the MIC (Staphylococcus aureus [7]) was 3.12 µg/mL (≈ 9.62 µM) and the MIC (Staphylococcus aureus [8]) was 1.56 µg/mL (≈ 4.81 µM). For the same compound, the MIC (Staphylococcus aureus [9]) was 3.12 µg/mL (≈ 9.62 µM), the MIC (Bacillus spizizenii) was ≤ 0.78 µg/mL and the MIC (Staphylococcus aureus [10]) was 1.56 µg/mL (≈ 4.81 µM). For the same compound, the MIC (Staphylococcus aureus [11]) was 3.12 µg/mL (≈ 9.62 µM), the MIC (Enterococcus faecalis [12]) was 3.12 µg/mL (≈ 9.62 µM) and the MIC (Klebsiella pneumoniae) was > 100 µg/mL. It also gave an MIC (Staphylococcus aureus [13]) of 1.56 µg/mL (≈ 4.81 µM) and an MIC (Staphylococcus aureus [14]) of 3.12 µg/mL (≈ 9.62 µM).
For Cc1cccc2c1NC(=O)/C2=N\NC(=S)Nc1ccc(Cl)cc1, the MIC (Staphylococcus aureus [1]) was 1.56 µg/mL (≈ 4.52 µM), the MIC (Staphylococcus aureus [2]) was 1.56 µg/mL (≈ 4.52 µM) and the MIC (Staphylococcus aureus [3]) was 3.12 µg/mL (≈ 9.05 µM). For the same compound, the MIC (Staphylococcus aureus [4]) was 3.12 µg/mL (≈ 9.05 µM), the MIC (Enterococcus faecalis [5]) was 3.12 µg/mL (≈ 9.05 µM) and the MIC (Pseudomonas aeruginosa) was > 100 µg/mL. It also gave an MIC (Staphylococcus aureus [6]) of 3.12 µg/mL (≈ 9.05 µM), an MIC (Staphylococcus aureus [7]) of 1.56 µg/mL (≈ 4.52 µM) and an MIC (Staphylococcus aureus [8]) of 1.56 µg/mL (≈ 4.52 µM). For the same compound, the MIC (Staphylococcus aureus [9]) was 1.56 µg/mL (≈ 4.52 µM), the MIC (Bacillus spizizenii) was 1.56 µg/mL (≈ 4.52 µM) and the MIC (Staphylococcus aureus [10]) was 1.56 µg/mL (≈ 4.52 µM). For the same compound, the MIC (Staphylococcus aureus [11]) was 1.56 µg/mL (≈ 4.52 µM), the MIC (Enterococcus faecalis [12]) was 1.56 µg/mL (≈ 4.52 µM) and the MIC (Klebsiella pneumoniae) was > 100 µg/mL. It also gave an MIC (Staphylococcus aureus [13]) of 0.78 µg/mL (≈ 2.26 µM) and an MIC (Staphylococcus aureus [14]) of 1.56 µg/mL (≈ 4.52 µM).
With Cc1cccc2c1NC(=O)/C2=N\NC(=S)Nc1ccc(F)cc1 the MIC (Staphylococcus aureus [1]) was 1.56 µg/mL (≈ 4.75 µM), the MIC (Staphylococcus aureus [2]) was 0.78 µg/mL (≈ 2.38 µM) and the MIC (Staphylococcus aureus [3]) was 1.56 µg/mL (≈ 4.75 µM). For the same compound, the MIC (Staphylococcus aureus [4]) was 3.12 µg/mL (≈ 9.5 µM), the MIC (Enterococcus faecalis [5]) was 3.12 µg/mL (≈ 9.5 µM) and the MIC (Pseudomonas aeruginosa) was > 100 µg/mL. It also gave an MIC (Staphylococcus aureus [6]) of 1.56 µg/mL (≈ 4.75 µM), an MIC (Staphylococcus aureus [7]) of 1.56 µg/mL (≈ 4.75 µM) and an MIC (Staphylococcus aureus [8]) of 1.56 µg/mL (≈ 4.75 µM). The MIC (Staphylococcus aureus [9]) was 1.56 µg/mL (≈ 4.75 µM), the MIC (Bacillus spizizenii) was ≤ 0.78 µg/mL and the MIC (Staphylococcus aureus [10]) was 1.56 µg/mL (≈ 4.75 µM). The MIC (Staphylococcus aureus [11]) was 1.56 µg/mL (≈ 4.75 µM), the MIC (Enterococcus faecalis [12]) was 1.56 µg/mL (≈ 4.75 µM) and the MIC (Klebsiella pneumoniae) was > 100 µg/mL. It also gave an MIC (Staphylococcus aureus [13]) of 0.78 µg/mL (≈ 2.38 µM) and an MIC (Staphylococcus aureus [14]) of 1.56 µg/mL (≈ 4.75 µM).
Compound Cc1ccccc1NC(=S)N/N=C1\C(=O)Nc2c(F)cccc21 has an MIC (Staphylococcus aureus [1]) of 1.56 µg/mL (≈ 4.75 µM), an MIC (Staphylococcus aureus [2]) of 1.56 µg/mL (≈ 4.75 µM) and an MIC (Staphylococcus aureus [3]) of 3.12 µg/mL (≈ 9.5 µM). The MIC (Staphylococcus aureus [4]) was 3.12 µg/mL (≈ 9.5 µM), the MIC (Enterococcus faecalis [5]) was 6.25 µg/mL (≈ 19 µM) and the MIC (Pseudomonas aeruginosa) was > 100 µg/mL. For the same compound, the MIC (Staphylococcus aureus [6]) was 3.12 µg/mL (≈ 9.5 µM), the MIC (Staphylococcus aureus [7]) was 3.12 µg/mL (≈ 9.5 µM) and the MIC (Staphylococcus aureus [8]) was 1.56 µg/mL (≈ 4.75 µM). For the same compound, the MIC (Staphylococcus aureus [9]) was 1.56 µg/mL (≈ 4.75 µM), the MIC (Bacillus spizizenii) was ≤ 0.78 µg/mL and the MIC (Staphylococcus aureus [10]) was 1.56 µg/mL (≈ 4.75 µM). The MIC (Staphylococcus aureus [11]) was 1.56 µg/mL (≈ 4.75 µM), the MIC (Enterococcus faecalis [12]) was 6.25 µg/mL (≈ 19 µM) and the MIC (Klebsiella pneumoniae) was > 100 µg/mL. For the same compound, the MIC (Staphylococcus aureus [13]) was 1.56 µg/mL (≈ 4.75 µM) and the MIC (Staphylococcus aureus [14]) was 1.56 µg/mL (≈ 4.75 µM).
In the case of O=C1Nc2c(F)cccc2/C1=N/NC(=S)Nc1ccc(F)cc1, the MIC (Staphylococcus aureus [1]) is reported as 1.56 µg/mL (≈ 4.69 µM), the MIC (Staphylococcus aureus [2]) is reported as 1.56 µg/mL (≈ 4.69 µM) and the MIC (Staphylococcus aureus [3]) is reported as 3.12 µg/mL (≈ 9.39 µM). For the same compound, the MIC (Staphylococcus aureus [4]) was 3.12 µg/mL (≈ 9.39 µM), the MIC (Enterococcus faecalis [5]) was 3.12 µg/mL (≈ 9.39 µM) and the MIC (Pseudomonas aeruginosa) was > 100 µg/mL. It also gave an MIC (Staphylococcus aureus [6]) of 1.56 µg/mL (≈ 4.69 µM), an MIC (Staphylococcus aureus [7]) of 1.56 µg/mL (≈ 4.69 µM) and an MIC (Staphylococcus aureus [8]) of 1.56 µg/mL (≈ 4.69 µM). For the same compound, the MIC (Staphylococcus aureus [9]) was 1.56 µg/mL (≈ 4.69 µM), the MIC (Bacillus spizizenii) was 1.56 µg/mL (≈ 4.69 µM) and the MIC (Staphylococcus aureus [10]) was 1.56 µg/mL (≈ 4.69 µM). For the same compound, the MIC (Staphylococcus aureus [11]) was 1.56 µg/mL (≈ 4.69 µM), the MIC (Enterococcus faecalis [12]) was 3.12 µg/mL (≈ 9.39 µM) and the MIC (Klebsiella pneumoniae) was > 100 µg/mL. For the same compound, the MIC (Staphylococcus aureus [13]) was 0.78 µg/mL (≈ 2.35 µM) and the MIC (Staphylococcus aureus [14]) was 1.56 µg/mL (≈ 4.69 µM).
Cc1cccc(NC(=S)N/N=C2\C(=O)Nc3c(F)cccc32)c1 gave an MIC (Staphylococcus aureus [1]) of 0.78 µg/mL (≈ 2.38 µM), an MIC (Staphylococcus aureus [2]) of 0.78 µg/mL (≈ 2.38 µM) and an MIC (Staphylococcus aureus [3]) of 1.56 µg/mL (≈ 4.75 µM). The MIC (Staphylococcus aureus [4]) was 1.56 µg/mL (≈ 4.75 µM), the MIC (Enterococcus faecalis [5]) was 3.12 µg/mL (≈ 9.5 µM) and the MIC (Pseudomonas aeruginosa) was > 100 µg/mL. For the same compound, the MIC (Staphylococcus aureus [6]) was 0.78 µg/mL (≈ 2.38 µM), the MIC (Staphylococcus aureus [7]) was 1.56 µg/mL (≈ 4.75 µM) and the MIC (Staphylococcus aureus [8]) was 0.78 µg/mL (≈ 2.38 µM). For the same compound, the MIC (Staphylococcus aureus [9]) was 0.78 µg/mL (≈ 2.38 µM), the MIC (Bacillus spizizenii) was ≤ 0.78 µg/mL and the MIC (Staphylococcus aureus [10]) was 0.78 µg/mL (≈ 2.38 µM). For the same compound, the MIC (Staphylococcus aureus [11]) was 0.78 µg/mL (≈ 2.38 µM), the MIC (Enterococcus faecalis [12]) was 3.12 µg/mL (≈ 9.5 µM) and the MIC (Klebsiella pneumoniae) was > 100 µg/mL. The MIC (Staphylococcus aureus [13]) was 0.39 µg/mL (≈ 1.19 µM) and the MIC (Staphylococcus aureus [14]) was 1.56 µg/mL (≈ 4.75 µM).
